Here are results for 76 molecules from article PMC12040169 (PLOS Biology, 2025).

The nature of the data set: in vitro. The settings on record: human, hela cells, % viability.

Turning to `COc1ccc(C(=O)NC(CC(=O)O)c2ccc(OC)cc2)cc1` (stereo not shown) [CBK266188], the viability at 28.5 h, 10 µM amounted to 101%.

For the molecule `CC(Sc1nc(N)cc(=O)[nH]1)C(=O)Nc1ccc(S(N)(=O)=O)cc1` (stereo not shown) [CBK266191], the viability at 28.5 h, 10 µM turned out to be 110%.

With `N#Cc1c(NC(=O)CSc2nc(-c3ccco3)cc(C(F)(F)F)n2)sc2c1CCCC2` [CBK266193], the viability at 28.5 h, 10 µM stood at 87%.

For the molecule `CN(C)CCCNc1ccc(-c2nnc(O)c3ccccc23)cc1[N+](=O)[O-]` [CBK266200], the viability at 28.5 h, 10 µM came out at 100%.

On to `COc1ccccc1NC(=S)NCCc1ccc(S(N)(=O)=O)cc1` [CBK266201], for which the viability at 28.5 h, 10 µM is 95.1%.

As to `NC(=O)c1ccc(NC(=O)CSc2nnc(-c3ccncc3)n2-c2ccc(Br)cc2)cc1` [CBK266202], the viability at 28.5 h, 10 µM came out at 103%.

For `O=C(COc1ccc([N+](=O)[O-])cc1)Nc1ccc(CN2CCCCC2)cc1` [CBK266204], the viability at 28.5 h, 10 µM worked out at 118%.

Consider `CCc1ccc(CC)c(S(=O)(=O)NC(CC(=O)O)c2ccccc2)c1` (stereo not shown) [CBK266208], for which the viability at 28.5 h, 10 µM was found to be 102%.

Turning to `O=C(Nc1ccc(I)cc1C(=O)NCCN1CCOCC1)c1ccco1` [CBK266211], the viability at 28.5 h, 10 µM amounted to 100%.

On to `O=C(Nc1ccc(I)cc1C(=O)N1CCCCC1CCO)c1cccc2ccccc12` (stereo not shown) [CBK266212], for which the viability at 28.5 h, 10 µM stood at 113%.

`CCN(CC)CC(=O)Nc1ccccc1OC` [CBK266213C]: the viability at 28.5 h, 10 µM is 113%.

On to `O=C(O)CSc1nnc(SCc2cccc3ccccc23)s1` [CBK266215], for which the viability at 28.5 h, 10 µM amounted to 81.4%.

With `NC(=O)C1(N2CCCCC2)CCN(C(=O)CSc2nnc(-c3ccccc3)n2C2CCCCC2)CC1` [CBK266219], the viability at 28.5 h, 10 µM came to 101%.

Turning to `CC(=O)Nc1ccc(NC(=O)c2ccc(-c3ccc([N+](=O)[O-])cc3)o2)cc1` [CBK266220], the viability at 28.5 h, 10 µM was 99.8%.

For `Nc1nc(CSc2nnc(-c3ccncc3)o2)nc(Nc2ccc(F)cc2)n1` [CBK266221], the viability at 28.5 h, 10 µM turned out to be 116%.

`O=C(NC(=S)Nc1ccc(OCc2ccccc2)cc1)c1cccnc1` [CBK266224]: the viability at 28.5 h, 10 µM came out at 97.8%.

With `CC(=O)c1cc2c(cc1NC(=O)CSc1ccccn1)OCO2` [CBK266225], the viability at 28.5 h, 10 µM was determined as 94.2%.

In the case of `CC(Sc1ccc(Br)c2cccc(C(=O)O)c12)C(=O)O` (stereo not shown) [CBK266226], the viability at 28.5 h, 10 µM was 97.4%.

As to `Cc1cc(C(F)F)n2nc(C(=O)NCc3ccccc3F)nc2n1` [CBK266228], the viability at 28.5 h, 10 µM was determined as 97.2%.

With `Cn1cc(C(CC(=O)O)C(=O)O)c2ccccc21` (stereo not shown) [CBK266231], the viability at 28.5 h, 10 µM was determined as 98.9%.

In the case of `CCc1ccc(Oc2c[nH]nc2-c2ccc(OCc3cnn(-c4ccccc4)c3)cc2O)cc1` [CBK266233], the viability at 28.5 h, 10 µM worked out at 91.4%.

Regarding `O=C(CCN1C(=O)c2cccc3cccc(c23)C1=O)Oc1ccc2c(c1)OCO2` [CBK266237], the viability at 28.5 h, 10 µM is 106%.

As for `CN1CCN(c2ccc(NC(=S)NC(=O)c3cc4ccccc4o3)cc2)CC1` [CBK266240], the viability at 28.5 h, 10 µM was determined as 95.5%.

`COC(=O)c1ccccc1NC(=O)CN(C)S(=O)(=O)c1c(C)cc(C)cc1C` [CBK266241]: the viability at 28.5 h, 10 µM was determined as 110%.

For the molecule `COc1ccc(S(=O)(=O)N(C)CC(=O)Nc2cccc(C(F)(F)F)c2)cc1OC` [CBK266242], the viability at 28.5 h, 10 µM is 95.5%.

On to `COc1ccc([N+](=O)[O-])cc1NC(=O)C1(c2ccc(OC)c(OC)c2)CCOCC1` [CBK266243], for which the viability at 28.5 h, 10 µM worked out at 98.2%.

Consider `CN1CCN(CC(=O)Nc2ccc(Cl)cc2C(=O)c2ccccc2)CC1` [CBK266246], for which the viability at 28.5 h, 10 µM was determined as 91.8%.

Take `O=C(C1=C(O)C(=O)N(Cc2ccncc2)C1c1cccc(OCc2ccccc2)c1)c1cccs1` (stereo not shown) [CBK266247]: the viability at 28.5 h, 10 µM came to 102%.

For the molecule `COC(=O)c1ccccc1NC(=O)CSc1nnc(-c2sc(N)nc2C)o1` [CBK266250], the viability at 28.5 h, 10 µM came out at 100%.

In the case of `Cc1cc(C(F)F)n2nc(C(=O)Nc3ccc(S(=O)(=O)NC45CC6CC(CC(C6)C4)C5)cc3)nc2n1` [CBK266251], the viability at 28.5 h, 10 µM worked out at 96.2%.

Turning to `O=C1c2cccc3cccc(c23)C(=O)N1CCN1CCN(CC(O)COc2ccccc2)CC1` (stereo not shown) [CBK266255], the viability at 28.5 h, 10 µM came out at 97.4%.

`COc1ccc(NC(=N)Nc2nc(=O)cc(CSc3nc4ccccc4s3)[nH]2)cc1` [CBK266256]: the viability at 28.5 h, 10 µM amounted to 101%.

In the case of `COC(=O)c1cc(NC(=O)CC2Sc3ccccc3NC2=O)cc(C(=O)OC)c1` (stereo not shown) [CBK266260], the viability at 28.5 h, 10 µM was 99.6%.

In the case of `CC(=O)Nc1ccc(S(=O)(=O)Nc2ccc(-c3csc(C)n3)cc2)cc1` [CBK266261], the viability at 28.5 h, 10 µM stood at 85.7%.

As to `CC(Oc1ccccc1)c1nnc(SCC(=O)Nc2cc(Cl)c(Cl)cc2Cl)n1C` (stereo not shown) [CBK266262], the viability at 28.5 h, 10 µM turned out to be 108%.

For the molecule `NS(=O)(=O)c1ccc(NC(=S)NC(=O)c2ccc(Cl)cc2Cl)cc1` [CBK266265], the viability at 28.5 h, 10 µM worked out at 94%.

As for `CN(C)S(=O)(=O)c1ccc(-c2nn(-c3ccccc3)cc2/C=C(\C#N)c2nc3ccccc3c(=O)[nH]2)cc1` [CBK266266], the viability at 28.5 h, 10 µM was determined as 101%.

Take `N#C/C(=C\c1cn(-c2ccccc2)nc1-c1ccc(S(=O)(=O)N2CCCCC2)cc1)c1nc2ccccc2c(=O)[nH]1` [CBK266268]: the viability at 28.5 h, 10 µM was found to be 101%.

As to `Cc1ccc(S(=O)(=O)NCCn2cnc([N+](=O)[O-])n2)cc1` [CBK266270], the viability at 28.5 h, 10 µM is 96.3%.

Turning to `Cc1sc(NC(=S)NC(=O)C2CCCCC2)c(C(N)=O)c1C` [CBK266273], the viability at 28.5 h, 10 µM is 97.3%.

For the molecule `O=C(CSCc1c(Cl)cccc1Cl)Nc1ccc(S(=O)(=O)N2CCOCC2)cc1` [CBK266276], the viability at 28.5 h, 10 µM stood at 109%.

Take `O=C(CN(c1ccc(I)cc1)S(=O)(=O)c1ccccc1)NCC1CCCO1` (stereo not shown) [CBK266278]: the viability at 28.5 h, 10 µM came out at 101%.

Turning to `Cc1ccc2nsnc2c1NC(=O)Cc1cccc2ccccc12` [CBK266279], the viability at 28.5 h, 10 µM came out at 98.8%.

On to `COc1ccc(S(=O)(=O)NCCSCc2cccc(Cl)c2)c(Cl)c1Cl` [CBK266281], for which the viability at 28.5 h, 10 µM amounted to 97.6%.

Take `O=C(Cc1cccc2ccccc12)NC(=S)Nc1ccc(S(=O)(=O)N2CCCCC2)cc1` [CBK266283]: the viability at 28.5 h, 10 µM came out at 106%.

For the molecule `COc1cc(S(=O)(=O)N2CCN(S(=O)(=O)c3cccc([N+](=O)[O-])c3)CC2)ccc1Cl` [CBK266285], the viability at 28.5 h, 10 µM came to 89.6%.

Take `O=C(Cc1cccc2ccccc12)Nc1ccc2oc(-c3ccccc3)nc2c1` [CBK266286]: the viability at 28.5 h, 10 µM was 96.3%.

`CCOC(=O)c1cnc(SCc2nc(N)nc(Nc3ccc(C)cc3)n2)nc1N` [CBK266292]: the viability at 28.5 h, 10 µM turned out to be 115%.

Consider `Cc1ccc(OCC(O)Cn2c(=N)n(Cc3ccccc3)c3ccccc32)cc1` (stereo not shown) [CBK266293C], for which the viability at 28.5 h, 10 µM came out at 91.7%.

In the case of `O=C(CNS(=O)(=O)c1ccc(Br)cc1)NCc1cccnc1` [CBK266295], the viability at 28.5 h, 10 µM was found to be 97.2%.

As to `Cc1ccc(S(=O)(=O)NC(C)(C)CSc2nncn2N)cc1` [CBK266297], the viability at 28.5 h, 10 µM was 103%.

Take `Cc1ccc(S(=O)(=O)NCCSc2nnc(N)s2)cc1` [CBK266300]: the viability at 28.5 h, 10 µM is 97.9%.

With `Cc1cc2oc(C(=O)Nc3sc4c(c3C#N)CCCC4)c(C)c2cc1C` [CBK266301], the viability at 28.5 h, 10 µM came to 103%.

For the molecule `Cc1cccc(Nc2[nH]c3cc(C)ccc3c2[N+](=O)[O-])c1` [CBK266303], the viability at 28.5 h, 10 µM came to 81.9%.

As to `Nc1nnc(-c2ccc(Oc3nc(N4CCOCC4)nc(N4CCOCC4)n3)cc2)s1` [CBK266305], the viability at 28.5 h, 10 µM was 96.1%.

On to `O=S(=O)(NCC(Sc1ccc(F)cc1)c1ccccc1)c1ccc(Cl)cc1` (stereo not shown) [CBK266306], for which the viability at 28.5 h, 10 µM was found to be 96.8%.

Consider `O=C(O)CCc1c(-c2ccccc2)cc2ccccn12` [CBK266308], for which the viability at 28.5 h, 10 µM turned out to be 109%.

For `O=C(O)c1cccc(CSc2nnc(-c3ccncc3)o2)c1` [CBK266310], the viability at 28.5 h, 10 µM came out at 106%.

On to `O=C1CC(c2nc3ccccc3n2CCc2ccccc2)CN1c1ccccc1` (stereo not shown) [CBK266311], for which the viability at 28.5 h, 10 µM came out at 101%.

As for `NC(=O)C1CCCN(S(=O)(=O)c2ccc(S(N)(=O)=O)cc2)C1` (stereo not shown) [CBK266312], the viability at 28.5 h, 10 µM was 96.2%.

Take `O=C(NCC1CCCO1)c1ccc(NC(=O)C2C3C=CC(C3)C2C(=O)O)cc1` (stereo not shown) [CBK266317]: the viability at 28.5 h, 10 µM came out at 94.9%.

As to `Cc1nnc(SCc2cc(=O)nc(NC(=N)Nc3cccc(Cl)c3)[nH]2)s1` [CBK266318], the viability at 28.5 h, 10 µM turned out to be 75.5%.

Consider `CC1CCc2c(sc(NC(=S)NC(=O)c3cc4ccccc4o3)c2C#N)C1` (stereo not shown) [CBK266319], for which the viability at 28.5 h, 10 µM turned out to be 101%.

Take `Nc1nnc(SCC(=O)N2CCN(C(c3ccccc3)c3ccccc3)CC2)s1` [CBK266320]: the viability at 28.5 h, 10 µM amounted to 99.2%.

`COc1ccc(CCN2C(=O)CC(Nc3ccc(N4CCOCC4)cc3)C2=O)cc1OC` (stereo not shown) [CBK266322]: the viability at 28.5 h, 10 µM was found to be 97.7%.

With `O=C(Cc1cccc2ccccc12)Nc1ccccc1C(=O)O` [CBK266325], the viability at 28.5 h, 10 µM came to 100%.

As for `CCOc1cc(C#N)cc(I)c1OCC(=O)O` [CBK266326], the viability at 28.5 h, 10 µM was determined as 96.9%.

As for `Cc1[nH]c2ccccc2c1C(=O)CSc1nnc(N)s1` [CBK266328], the viability at 28.5 h, 10 µM stood at 102%.

Regarding `CS(=O)(=O)N(CC(=O)N1CCN(C(c2ccccc2)c2ccccc2)CC1)c1cccc(F)c1` [CBK266330], the viability at 28.5 h, 10 µM was 105%.

Consider `Nc1nnc(SCC(=O)Nc2ccc3c(c2)OCCO3)s1` [CBK266331], for which the viability at 28.5 h, 10 µM was 95.6%.

As for `COc1cc(Cl)cc(C2NC(=S)NC(c3ccccc3)=C2C(=O)c2ccccc2)c1OCC(=O)O` (stereo not shown) [CBK266332], the viability at 28.5 h, 10 µM was found to be 106%.

Turning to `CC1(C)CC(=O)C2=C(C1)Nc1nn(-c3ccccc3)c(O)c1C2c1cccs1` (stereo not shown) [CBK266333], the viability at 28.5 h, 10 µM amounted to 94%.

Take `O=C(Nc1sc2c(c1C(=O)NCc1cccnc1)CCCC2)c1sc2ccccc2c1Cl` [CBK266334]: the viability at 28.5 h, 10 µM is 95.9%.

As for `CN(C)CCSc1nc2cc(Cl)ccc2o1` [CBK266337C], the viability at 28.5 h, 10 µM turned out to be 96.6%.

Turning to `N#C/C(=C\c1cn(-c2ccccc2)nc1-c1ccc(S(=O)(=O)N2CCOCC2)cc1)c1nc2ccccc2c(=O)[nH]1` [CBK266343], the viability at 28.5 h, 10 µM was 104%.

Turning to `Cc1sc(NC(=S)NC(=O)Cc2cccc3ccccc23)c(C(N)=O)c1C` [CBK266344], the viability at 28.5 h, 10 µM worked out at 91.4%.

The viability is a read-out of living cells in per cent, often relative to untreated cells.
